The record followed here is patent US20220194952A1, “TETRAPYRROLIC CONJUGATES AND USES THEREOF FOR IMAGING” (Health Research, Inc., priority 2019, published 2022).

A short description of series [1]: Fluorescence quantum yield and lifetime in benzonitrile (PhCN). The format is physicochemical. Here is the method: (B) Fluorescence decay curve of 4 observed at 787 nm. Excitation wavelength: 651 nm.
(§1) Instrumentation: Measurement of fluorescence quantum yields were carried out on a Hamamatsu C9920-0X(PMA-12) U6039-05 fluorescence spectrofluorometer. Femtosecond laser flash photolysis was conducted using a Clark-MXR 2010 laser system and an optical detection system provided by Ultrafast Systems (Helios). The source for the pump and probe pulses were derived from the fundamental output of Clark laser system (775 nm, 1 mJ pulse-1 and fwhm=150 fs) at a repetition rate of 1 kHz. A second harmonic generator introduced in the path of the laser beam provided […] laser pulses for excitation. A 95% of the fundamental output of the laser was used to generate the second harmonic, while 5% of the deflected output was used for white light generation. Prior to generating the probe continuum, the laser pulse was fed to a delay line that provided an experimental time window of 1.6 ns with a maximum step resolution of 7 fs. The pump beam was attenuated at 5 μJ pulse-1 with a spot size of 2 mm diameter at the sample cell where it was merged with the white probe pulse in a close angle (<10°). […] The photodynamics were monitored by continuous exposure to a xenon lamp for visible region and halogen lamp for near-IR region as a probe light and a photomultiplier tube (Hamamatsu 2949) as a detector.

Series [2] in a line: Singlet oxygen phosphorescence at 1270 nm, methanol, pulsed laser 532 nm. The format is physicochemical. The note with it: near 5 μM, equi-absorbant at 532 nm, excited at 532 nm. Here is the method: The photosensitizers, e. g., HPPH (control), 2 and 4 were individually dissolved in methanol (concentration: 5 μM) in polystyrene cuvettes and excited at 532 nm using a pulsed laser. Phosphorescence of singlet oxygen was detected at 1270 nm.
Before evaluating the imaging and photosensitizing potential of the chlorin 4 with extended ring system, its singlet oxygen producing ability was compared with the related chlorin 2. In brief, both compounds were individually dissolved in methanol in equi-absorbant (at 532 nm) concentrations near 5 μM and excited at 532 nm using a pulsed laser. The phosphorescence of singlet oxygen was detected at 1270 nm. From the results summarized in FIG. 4, it can be seen that compared to chlorin 2 with a five-member isocyclic ring, the related analog 4 with an extended ring system had remarkably lower singlet oxygen producing ability. Singlet oxygen quantum yields were φ=0.29 and φ=0.02 respectively, compared to HPPH φ=0.45.

The nature of series [3]: Nanosecond laser flash transient absorption of triplet excited state in PhCN. The format is physicochemical. The protocol:
The decay time profiles at 580 nm in (b) argon- and (c) air-saturated PhCN. The single-exponential fitting curves are shown as gray lines.
Singlet oxygen is generated by energy transfer from the triplet excited state of 4 to molecular oxygen (O2). […] The decay profile of T-T absorption was obeyed with the single exponential curve (FIG. 6b). The lifetime was determined to be τ=38 μs. […] The energy transfer rate constant was determined to be 1.4×10^9M^−1 s^−1, indicating the efficient energy transfer occurred between the triplet excited state of 4 and O2 to for singlet oxygen generation.
as §1

A short description of series [4]: Photobleaching in 17% bovine calf serum. It counts as physicochemical. The note with it: 17% BCS, dye laser 75 mW/cm^2, 785 nm for 4. Here is the method:
Photobleaching was performed in quartz cuvettes on a 5 μM solution of 2 and a 25 μM solution of 4 in 17% BCS. The higher molarity was chosen to approximate the absorbance of 2 at 5 μM. A dye laser was used at dose rate 75 mW/cm^2, and excitation wavelength for 2 was 660 nm and for 4 was 785 nm.
In photodynamic therapy, photobleaching is the photochemical alteration of a chromophore or a fluorophore molecule such that could either permanently is unable to fluoresce or alter its fluorescence characteristics. This is caused by cleaving of the covalent bonds or non-specific reaction between the reactive oxygen species (e.g., singlet oxygen) and the molecule. These […] species formed by conversion of the molecular oxygen present in tumor to singlet oxygen by exposing the photosensitizer with light at an appropriate wavelength. The rate of photobleaching of the PS should depend (a) availability of oxygen, (b) photostability of PS and finally (c) the singlet oxygen (or other reactive oxygen species) producing ability of the PS.
To investigate the photobleaching characteristics of the photosensitizers, compounds 2 and 4 in equimolar concentrations (5 μM) were taken in quartz cuvettes in 17% bovine calf serum. Dye lasers with appropriate wavelength (2: 660 nm and 4: 785 nm) were used at a dose rate of 75 mW/cm^2. Both the compounds in formulated forms were irradiated with light and the absorption spectra at their long wavelength absorptions were measured with time. The decay in absorbance was plotted against the time of light exposure.

The subject of the next series is Colon26 cells. Nature of the series: In vitro cytotoxicity (PDT) MTT assay. The format is cell-based. The note with it: variable drug concentrations, fixed light dose 1.0 J/cm^2 (FIG. 8A). Here is the method:
Drug concentrations were increased 10× (0.25 to 32.0 μM) and a significant cytotoxicity was observed only at high concentrations at the highest light dose.
Assessment of cell growth following treatment with compound solutions alone and after light exposure was determined by a colorimetric assay that measured the reduction of yellow 3-(4,5-dimethythiazol-2-yl)-2,5-diphenyl tetrazolium bromide (MTT) by mitochondrial succinate dehydrogenase.
Briefly cells were plated into 96 well plates, allowed to adhere to the plate and are treated with a range of compound concentrations for various lengths of time. The light source consisted of dye lasers (375; Spectra-Physics, Mt. View, Calif.) pumped by an argon-ion laser (either 171 or 2080; Spectra-Physics). The dye lasers were tuned to the appropriate wavelength for the compound being tested. Total light doses were ranged from 0.125 to 1.0 J/cm^2 at a fluence rate of 3.2 mW/cm^2. At 48 hours post PDT treatment, MTT was added. The solubilized formazan product was measured spectro-photometrically using a BIOTEK EL-800 plate reader. Data were processed using GEN5 software. A medium blank value was subtracted from all samples and Optical Density (O.D.) values of treated cells were divided by mean O.D. value of untreated cells for each light dose).
Colon26 cells were plated and allowed to adhere for 4 hours, then the photosensitizer was added and incubated at 37° C. for 24 hours. Plates were irradiated with 789 nm light from a dye laser at 3.2 mW/cm^2 for a total dose of 0.25 to 1.0 Joule/cm^2.

In series [1] (PhCN, decay observed at 787 nm, excitation 651 nm), “methyl 3-[1′-(m-iodobenzyloxy)ethyl]-3-devinyl-13^3-keto-13^2-methoxycyclohexene [Compound 4]” showed a fluorescence lifetime of 0.81 ns. Further, the “Fluorescence quantum yield Φ” value in series [1] (benzonitrile (PhCN), excited at 532 nm) was 0.013. For the same substance, the “Singlet oxygen quantum yield φ” value in series [2] turned out to be 0.02. In series [3] (PhCN), the “energy transfer rate constant, triplet excited state to O2” value stood at 1.4e+09 M⁻¹ s⁻¹. Moreover, the “triplet decay rate constant in the presence of dissolved O2” value in series [3] (air-saturated PhCN) is 2.3e+06 s⁻¹. Besides, in series [3] (deaerated (argon-saturated) PhCN, T-T absorption decay at 580 nm), the “triplet excited state lifetime τ” value was found to be 38 μs. Besides, the “photobleaching (in words)” value in series [4] was “negligible photobleaching”. For the same substance, the “in vitro cytotoxicity (in words)” value with Colon26 cells is recorded as “did not produce any significant cell kill”.
